These results are taken from US11964971B2, “Methods and compositions for modulating splicing” (Skyhawk Therapeutics, Inc., priority 2019, dated 2024).

What is called efflux ratio is a quotient of directional permeabilities that is used to spot active efflux. A word on the EC50: it is the concentration at which the effect is half-maximal. The term Papp A→B denotes how fast a substance crosses the layer from the apical side. What is called Papp B→A is how fast a substance crosses the layer from the basolateral side.

In data set [1] the test system is MDR1-MDCK cell monolayers. To be noted: dog, MDCK-MDR1, 120 min, 5 μM, pH 7.4.
The subject of a further data set is MDR1 (P-gp). Put plainly: MDCK-MDR1 permeability assay, blood-brain-barrier penetration potential. Particulars: dog, MDCK-MDR1, pH 7.4, MDCK-MDR1 Efflux Ratio.
The test system of a further data set is SMN protein. Put plainly: SMN protein assay (MSD) in SMA patient fibroblasts (GM03813). The format is cell-based, human. The method, then: Compounds are tested on spinal muscular atrophy (SMA) patient fibroblasts (GM03813, Coriell) at doses ranging from 2.5 μM to 0.6 nM. 7000 cells/well are seeded in 96-well plates. Compounds are incubated for 48 hours and the cells were lysed with 100 μL of lysis buffer. 20 μL of lysate is used for SMN protein measurement by Mesoscale Discovery (MSD) assay developed by PharmOptima (Michigan). A standard curve prepared with SMN protein ranging from […] is used in each MSD plate to calculate the absolute SMN protein amount in each sample.

The next data set deals with MDR1. Put plainly: in vitro. To be noted: dog; for Papp A→B at 120 min, 5 μM: MDCK-MDR1, pH 7.4, MDCK-MDR1: Papp A-B (10^−6, cm/s); for Papp B→A at 120 min, 5 μM: MDCK-MDR1, pH 7.4, MDCK-MDR1: Papp B-A (10^−6, cm/s).

Regarding `Oc1cc(-c2cn[nH]c2)ccc1-c1cnc(O[C@H]2CC3CC[C@@H](N3)[C@H]2F)cn1` (single isomer, unassigned) [Compound 1E1], in data set [1], the “MDCK-MDR1: % Recov A-B (%)” value came out at 68% and the “MDCK-MDR1: % Recov B-A (%)” value turned out to be 82%. Also, the efflux ratio at 120 min, 5 μM in the data set with MDR1 (P-gp) came to 4. The EC50 with SMN protein is 501 to 10000 nM. In the data set on MDR1, this compound came in with an apical-to-basolateral permeability (Papp A→B) at 120 min, 5 μM of 8.22 ×10⁻⁶ cm/s and a Papp B→A at 120 min, 5 μM of 33.4 ×10⁻⁶ cm/s.

Consider `Oc1cc(-c2cn[nH]c2)ccc1-c1cnc(O[C@@H]2C[C@H]3CCC(N3)[C@@H]2F)cn1` (single isomer, unassigned) [Compound 1E2], for which, in data set [1], the “MDCK-MDR1: % Recov A-B (%)” value is on record as 66% and the “MDCK-MDR1: % Recov B-A (%)” value is 79%. Moreover, in the data set with MDR1 (P-gp), the efflux ratio at 120 min, 5 μM is 5. Also, the EC50 in the data set on SMN protein was in the range of 501 to 10000 nM. In the data set on MDR1, this compound showed a Papp A→B at 120 min, 5 μM of 7.49 ×10⁻⁶ cm/s and a Papp B→A at 120 min, 5 μM of 40.1 ×10⁻⁶ cm/s.

For `CN(c1cnc(-c2ccc(-c3cnn(C)c3)cc2O)cn1)[C@@H]1[C@H](F)[C@H]2CCC(N2)[C@@H]1F` (single isomer, unassigned) [Compound 4E2], in data set [1], the “MDCK-MDR1: % Recov A-B (%)” value was found to be 44% and the “MDCK-MDR1: % Recov B-A (%)” value is reported as 63%. Besides, the efflux ratio at 120 min, 5 μM with MDR1 (P-gp) stood at 6. The compound further returned an EC50 in the data set with SMN protein of 16 to 50 nM. In the data set with MDR1, this compound registered an apical-to-basolateral permeability (Papp A→B) at 120 min, 5 μM of 4.94 ×10⁻⁶ cm/s and a Papp B→A at 120 min, 5 μM of 27.9 ×10⁻⁶ cm/s.

For the compound `CN(c1cnc(-c2ccc(-c3cn[nH]c3)cc2O)cn1)[C@@H]1C[C@H]2CCCC(N2)[C@@H]1F` (single isomer, unassigned) [Compound 6E1], in data set [1], the “MDCK-MDR1: % Recov A-B (%)” value was determined as 76% and the “MDCK-MDR1: % Recov B-A (%)” value amounted to 69%. The efflux ratio at 120 min, 5 μM in the data set with MDR1 (P-gp) worked out at 9. Moreover, in the data set with SMN protein, the concentration giving a half-maximal response (EC50) was in the range of 501 to 10000 nM. In the data set with MDR1, this compound returned a Papp A→B at 120 min, 5 μM of 4.58 ×10⁻⁶ cm/s and a basolateral-to-apical permeability (Papp B→A) at 120 min, 5 μM of 42.3 ×10⁻⁶ cm/s.

In the case of `CN(c1cnc(-c2ccc(-c3cn[nH]c3)cc2O)cn1)[C@@H]1C[C@H]2CCC(N2)[C@@H]1F` (single isomer, unassigned) [Compound 8E1], in data set [1], the “MDCK-MDR1: % Recov A-B (%)” value worked out at 72% and the “MDCK-MDR1: % Recov B-A (%)” value amounted to 71%. Also, the efflux ratio at 120 min, 5 μM in the data set with MDR1 (P-gp) came to 9. Further, the EC50 in the data set on SMN protein was in the range of 501 to 10000 nM. In the data set with MDR1, the Papp A→B at 120 min, 5 μM stood at 3.58 ×10⁻⁶ cm/s and the Papp B→A at 120 min, 5 μM amounted to 33.3 ×10⁻⁶ cm/s.

In the case of `CN(c1cnc(-c2ccc(-c3cn[nH]c3)cc2O)cn1)[C@H]1CC2N[C@@H](C1)CC2(F)F` (single isomer, unassigned) [Compound 9E1], in data set [1], the “MDCK-MDR1: % Recov A-B (%)” value was 60% and the “MDCK-MDR1: % Recov B-A (%)” value is reported as 77%. Moreover, the efflux ratio at 120 min, 5 μM with MDR1 (P-gp) was 3. In the data set with SMN protein, the concentration for a half-maximal effect (EC50) was in the range of 501 to 10000 nM. In the data set on MDR1, this compound registered an apical-to-basolateral permeability (Papp A→B) at 120 min, 5 μM of 17.9 ×10⁻⁶ cm/s and a Papp B→A at 120 min, 5 μM of 51.6 ×10⁻⁶ cm/s.

`CN(c1cnc(-c2ccc(-c3cn[nH]c3)cc2O)cn1)[C@H]1CC2CC(F)(F)[C@H](C1)N2` (single isomer, unassigned) [Compound 9E2]: in data set [1], the “MDCK-MDR1: % Recov A-B (%)” value worked out at 71% and the “MDCK-MDR1: % Recov B-A (%)” value amounted to 90%. Also, in the data set with MDR1 (P-gp), the efflux ratio at 120 min, 5 μM was determined as 3. The concentration for a half-maximal effect (EC50) with SMN protein fell in the range of 16 to 50 nM. Besides, in the data set on MDR1, the apical-to-basolateral permeability (Papp A→B) at 120 min, 5 μM worked out at 19.9 ×10⁻⁶ cm/s and the Papp B→A at 120 min, 5 μM is 55.4 ×10⁻⁶ cm/s.

For `CN(c1cnc(-c2ccc(-c3cnn(C)c3)cc2O)cn1)[C@@H]1CC2CC(F)(F)[C@@H](C1)N2` (single isomer, unassigned) [Compound 10E1], in data set [1], the “MDCK-MDR1: % Recov A-B (%)” value was determined as 59% and the “MDCK-MDR1: % Recov B-A (%)” value is 86%. Moreover, the efflux ratio at 120 min, 5 μM in the data set on MDR1 (P-gp) is 1. In the data set with SMN protein, this compound showed an EC50 of 501 to 10000 nM. In the data set with MDR1, this compound gave an apparent permeability from apical to basolateral (Papp A→B) at 120 min, 5 μM of 22.9 ×10⁻⁶ cm/s and a Papp B→A at 120 min, 5 μM of 26.1 ×10⁻⁶ cm/s.

Take `CN(c1cnc(-c2ccc(-c3cnn(C)c3)cc2O)cn1)[C@@H]1CC2N[C@H](C1)CC2(F)F` (single isomer, unassigned) [Compound 10E2]: in data set [1], the “MDCK-MDR1: % Recov A-B (%)” value is 64% and the “MDCK-MDR1: % Recov B-A (%)” value amounted to 67%. Further, the efflux ratio at 120 min, 5 μM with MDR1 (P-gp) was 1. Moreover, the EC50 in the data set on SMN protein was in the range of 101 to 500 nM. Also, in the data set with MDR1, the Papp A→B at 120 min, 5 μM was determined as 28.7 ×10⁻⁶ cm/s and the apparent permeability from basolateral to apical (Papp B→A) at 120 min, 5 μM is 23.7 ×10⁻⁶ cm/s.

As for `Oc1cc(-n2ccnn2)c(F)cc1-c1cnc(N(C2CC2)[C@@H]2CC3CC[C@H](N3)[C@@H]2F)cn1` (single isomer, unassigned) [Compound 11E1], in data set [1], the “MDCK-MDR1: % Recov A-B (%)” value was found to be 74% and the “MDCK-MDR1: % Recov B-A (%)” value came to 83%. Further, the efflux ratio at 120 min, 5 μM in the data set on MDR1 (P-gp) turned out to be 7. Moreover, in the data set on SMN protein, the EC50 lay in the range of 501 to 10000 nM. In the data set on MDR1, the apical-to-basolateral permeability (Papp A→B) at 120 min, 5 μM turned out to be 5.25 ×10⁻⁶ cm/s and the Papp B→A at 120 min, 5 μM worked out at 35.9 ×10⁻⁶ cm/s.

Regarding `Oc1cc(-n2ccnn2)c(F)cc1-c1cnc(N(C2CC2)[C@H]2C[C@@H]3CCC(N3)[C@H]2F)cn1` (single isomer, unassigned) [Compound 11E2], in data set [1], the “MDCK-MDR1: % Recov A-B (%)” value is reported as 69% and the “MDCK-MDR1: % Recov B-A (%)” value turned out to be 72%. For the same compound, in the data set on MDR1 (P-gp), the efflux ratio at 120 min, 5 μM is 7. The 50% effective concentration (EC50) in the data set on SMN protein lay within 501 to 10000 nM. In the data set with MDR1, this compound showed a Papp A→B at 120 min, 5 μM of 6.21 ×10⁻⁶ cm/s and an apparent permeability from basolateral to apical (Papp B→A) at 120 min, 5 μM of 41.1 ×10⁻⁶ cm/s.

For `CN(c1cnc(-c2cc(F)c(-c3ccn(C)c(=O)c3)cc2O)cn1)[C@@H]1CC2CCC[C@H](N2)[C@@H]1F` (single isomer, unassigned) [Compound 12E1], in data set [1], the “MDCK-MDR1: % Recov A-B (%)” value came to 78% and the “MDCK-MDR1: % Recov B-A (%)” value was 83%. Moreover, the efflux ratio at 120 min, 5 μM with MDR1 (P-gp) stood at 28. In the data set on SMN protein, the EC50 lay in the range of 101 to 500 nM. In the data set with MDR1, the apical-to-basolateral permeability (Papp A→B) at 120 min, 5 μM was determined as 1.99 ×10⁻⁶ cm/s and the Papp B→A at 120 min, 5 μM was 54.9 ×10⁻⁶ cm/s.

Take `CN(c1cnc(-c2cc(F)c(-c3ccn(C)c(=O)c3)cc2O)cn1)[C@@H]1CC2CC[C@H](N2)[C@@H]1F` (single isomer, unassigned) [Compound 13E1]: the “MDCK-MDR1: % Recov A-B (%)” value in data set [1] is recorded as 454%. In the data set with MDR1 (P-gp), the efflux ratio at 120 min, 5 μM was 49. Also, in the data set with SMN protein, the EC50 was in the range of 101 to 500 nM. This compound showed an apparent permeability from basolateral to apical (Papp B→A) at 120 min, 5 μM in the data set on MDR1 of 106 ×10⁻⁶ cm/s.

Regarding `CN(C)C(=O)c1cc(O)c(-c2cnc(N(C)[C@@H]3CC4CC[C@H](N4)[C@@H]3F)cn2)cc1F` (single isomer, unassigned) [Compound 14E1], in data set [1], the “MDCK-MDR1: % Recov A-B (%)” value came out at 79% and the “MDCK-MDR1: % Recov B-A (%)” value is recorded as 84%. Besides, in the data set with MDR1 (P-gp), the efflux ratio at 120 min, 5 μM came to 52. In the data set with SMN protein, this compound had a half-maximal effective concentration (EC50) of 501 to 10000 nM. Besides, in the data set on MDR1, the Papp A→B at 120 min, 5 μM was found to be 0.75 ×10⁻⁶ cm/s and the apparent permeability from basolateral to apical (Papp B→A) at 120 min, 5 μM came to 39.1 ×10⁻⁶ cm/s.

With `CN(c1cnc(-c2cc(F)c(C3=CC(F)NC(F)=C3)cc2O)cn1)[C@H]1C[C@]2(C)CC[C@@](C)(N2)[C@H]1F` (single isomer, unassigned) [Compound 63E2], in data set [1], the “MDCK-MDR1: % Recov A-B (%)” value was 19% and the “MDCK-MDR1: % Recov B-A (%)” value worked out at 24%. This compound came in with a 50% effective concentration (EC50) with SMN protein of 501 to 10000 nM. In the data set on MDR1, this compound returned a Papp A→B at 120 min, 5 μM of 0.58 ×10⁻⁶ cm/s and a Papp B→A at 120 min, 5 μM of 0.22 ×10⁻⁶ cm/s.

`Cc1noc(-c2ccc(-c3cnc(N(C)[C@@H]4CC5CC[C@H](N5)[C@@H]4F)cn3)c(O)c2)n1` (single isomer, unassigned) [Compound 70E1]: the EC50 in the data set with SMN protein was in the range of 501 to 10000 nM.

In turn, `Cc1noc(-c2ccc(-c3cnc(N(C)[C@H]4C[C@@H]5CCC(N5)[C@H]4F)cn3)c(O)c2)n1` (single isomer, unassigned) [Compound 70E2] showed a concentration for a half-maximal effect (EC50) with SMN protein of 101 to 500 nM.

`CN(c1cnc(-c2ccc3ccncc3c2O)cn1)[C@H]1C[C@@H]2CCC(N2)[C@H]1F` (single isomer, unassigned) [Compound 71E2] displayed a concentration for a half-maximal effect (EC50) with SMN protein of 16 to 50 nM.
